Experimental data as given in PubChem BioAssay (NCI).
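Exposure lasted 48 hours, with cells grown in 96-well plates and compounds tested at five concentrations. At the GI50, growth is halved. The concentration for full growth arrest is given as TGI.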

Experiments:
Test in all cases: NCI tumour cell line growth inhibition, 48 h
[1] = tested on: XF 498 CNS
[2] = tested on: M19-MEL melanoma
[3] = tested on: DMS 273 small cell lung
[4] = tested on: SNB-78 CNS
[5] = tested on: LXFL 529 NSCLC
[6] = tested on: DLD-1 colon
[7] = tested on: HOP-18 NSCLC
[8] = tested on: RXF-631 renal
[9] = tested on: SN12K1 renal
[10] = tested on: P388 leukemia
[11] = tested on: P388/ADR leukemia

Structure (SMILES): COc1cccc(/C=N/[N-]C(N)=O)c1[O-].[Cu+2].[OH3+].c1cnc2c(c1)ccc1cccnc12
- GI50 [1]: 2.3 µM
- TGI [1]: 6.36 µM

Structure (SMILES): O=S1c2ccccc2N=C(c2ccc3ccccc3c2)CC1c1ccccc1 (configuration not stated)
- TGI [2]: 34.9 µM
- TGI [3]: > 100 µM
- TGI [4]: > 100 µM
- TGI [1]: > 100 µM
- TGI [5]: 29.8 µM
- TGI [6]: 48.4 µM

Structure (SMILES): CCOC(=O)C(=CNC(Cc1c[nH]c2ccccc12)C(=O)OC)C(=O)OCC (configuration not stated)
- TGI [2]: > 100 µM
- TGI [7]: > 100 µM
- TGI [4]: > 100 µM
- TGI [1]: > 100 µM
- TGI [5]: > 100 µM
- TGI [6]: > 100 µM
- TGI [8]: > 100 µM

Structure (SMILES): COC(=N)C(C)C
- TGI [2]: > 100 µM
- TGI [3]: > 100 µM
- TGI [4]: > 100 µM
- TGI [5]: > 100 µM
- TGI [6]: > 100 µM

Structure (SMILES): CCOC(=O)C(C)OC(=O)c1ccc(C)cc1 (configuration not stated)
- TGI [2]: > 100 µM
- TGI [7]: > 100 µM
- TGI [3]: > 100 µM
- TGI [4]: > 100 µM
- TGI [1]: > 100 µM
- TGI [5]: > 100 µM
- TGI [6]: > 100 µM
- TGI [8]: > 100 µM

Structure (SMILES): O=c1oc2c(ccc3occc32)c(N2CCCCC2)c1-c1ccccc1
- TGI [2]: > 100 µM
- TGI [7]: > 100 µM
- TGI [9]: > 100 µM
- TGI [3]: > 100 µM
- TGI [4]: > 100 µM
- TGI [10]: > 100 µM
- TGI [1]: > 100 µM
- TGI [11]: > 100 µM
- TGI [6]: > 100 µM
